From patent US11365227B2, “Peptide and pharmaceutical compositions of same for use as an antimicrobial and in cancer treatment” (UNIVERSITAT DE VALÈNCIA, priority 2017, dated 2022)
Where a SMILES comes first, the peptide text is derived from it.

Columns and labels:
[1] = test system: MDA-MB-231 tumour cells; assay: Scanning and transmission electron microscopy of tumour cells; format: cell-based, human; conditions: 100 μg/mL, 72 h
Experimental: The MDA-MB-231 cells, control or treated with 100 μg/mL of PaSK, were prepared as indicated in the section “Preparation of the samples”. The cells were fixed with Karnosky (2.5% paraformaldehyde and 0.5% glutaraldehyde) for 2 h at 4° C. After washing (centrifuging and eliminating the supernatant) they were fixed with 2% osmium tetraoxide for another 2 h, washed again and filtered with a 0.2 μm filter. The cells were then dehydrated in graded ethanol series (30°, 50°, 70°, 90°, 100°) for 10 min in each gradation. To carry out the critical point drying, the ethanol was replaced with liquid CO2, the temperature was increased to accelerate evaporation and the pressure was lowered slowly to conserve the exact shape of the cells. Finally, shading with gold palladium was performed for 2 min observing the results in the equipment FEG-SEM HITACHI S4800 at 10 Kv. […]
Both scanning electron microscopy and transmission electron microscopy provide high resolution images, which were used to view the morphological and ultrastructural changes caused by the peptide PaSK in the membrane and inside of tumour cells. The MDA-MB-231 cells were treated with the peptide PaSK at a concentration of 100 μg/mL for 72 h, and were analysed using scanning electron microscopy (FIG. 14) and transmission electron microscopy (FIG. 15). […]

[2] = test system: S. aureus; assay: Transmission electron microscopy of S. aureus cells treated with peptides; format: cell-based, Staphylococcus aureus subsp. aureus CECT 4013; conditions: 25 μg/mL, 1 h
Experimental: The samples were prepared in the same way as for scanning electron microscopy, except for the series of graded dehydration with ethanol, in which only the 90° grade was reached. Then the samples were included in resin in 4 steps: ethanol 96°—resin LR-White 2:1 (20 h), ethanol 100°—resin 2:1 (20 h), ethanol 100°—resin 1:2 (20 h) and 100% resin (24 h at 60° C.). After the samples were included in the resin the block was prepared for ultrathin cuts of 60 nm in the equipment Leica UC6 Ultracut Microtome.
Transmission electron microscopy provides high-resolution images which were used to view the ultrastructural damage caused by the peptides inside the bacteria. The cells of S. aureus CECT 4013 were treated with the peptides hBD-3, TcDef3-pep and PaSK at a concentration of 25 μg/mL, for 1 h, and analysed using transmission electron microscopy (FIG. 6). In cells without treatment, an intact cytoplasm membrane (3) and peptidoglycane wall (2) were observed, typical of a Gram+ bacteria as S. aureus, as well as a division septum (1) without malformations, while in treated cells different types of alterations were observed. […] Small size circular structures (9) are observed. These structures show a different electrodensity from cells and lack a cytoplasm membrane and peptidoglycane wall. The biofilm formed by the cells treated with peptides was also observed in the images obtained by transmission electron microscopy (FIG. 7) and it was not observed in the cells treated with human defensin hBD-3 (FIG. 6).

[3] = test system: MDA-MB-231 cells; assay: Cell proliferation analysis by flow cytometry with Oregon Green; format: cell-based, human; conditions: 50 μM (200 μg/mL)
Experimental: A cell proliferation analysis was performed by flow cytometry for tumour cells marked with the fluorophore Oregon Green subsequently treated with a concentration of 50 μM (200 μg/mL) of the peptide PaSK or with H2O as control. This analysis allowed exploring the use of PaSK in a combined therapeutic approach. The combined use of therapeutic agents meant to inhibit tumour growth and maintenance and agents capable of stimulating the patient's immune response in the treatment of cancer is an alternative therapeutic approach to conventional approaches based only on cytotoxic agents for reducing the impact of the two main problems associated with the exclusive use of cytotoxic agents in cancer therapy: non-specific toxicity and the appearance of resistance.
The reagent Oregon Green is covalently bonded to free amine groups of cells, conferring on same a homogeneous fluorescence that is distributed among the daughter cells in each cell division. As the fluorescence intensity of the cells is approximately halved with each cell division, the final fluorescence intensity after treatment with the peptide and in non-treated control cells compared to the initial fluorescence intensity of the cells provides information on how many cell division cycles have occurred in each case.

[4] = test system: MDA-MB-231 tumour cells; assay: Cell cycle analysis by flow cytometry (CycleTEST PLUS, ModFit LT); format: cell-based, human; conditions: 100 μg/mL, 72 h
Experimental: The MDA-MB-231 cells were cultured in dishes with 6 wells with a density of 5×10^4 cells per well, in which 200 μL or 400 μL of PaSK were added (final concentrations 100 μg/mL and 200 μg/mL) or the same volume of the medium (solvent used to dilute the peptide) in the corresponding controls. The cells were incubated at 37° C. for 72 h.
For the cell line analysis, the CycleTEST™ PLUS DNA Reagent Kit (Sigma-Aldrich) was used. Two washes were carried out using citrate buffer (containing sodium citrate, saccharose and dimethyl sulphoxide (DMSO)), centrifuging the samples in each one at 300×g for 5 min, and one final wash was performed in which the number of cells was adjusted to 5×10^5 and centrifuged at 400×g for 5 min, and then adding 250 μL of solution A (containing trypsin in a detergent buffer with spermine tetrahydrochloride), 200 μL of solution B (containing an inhibitor of trypsin and ribonuclease A, in a stabilising buffer of citrate with spermine tetrahydrochloride) and 200 μL of solution C (includes PI and the stabilising buffer with spermine tetrahydrochloride), leaving between the addition of each solution an interval of 10 min at room temperature and performing the last one, before filtering, in a cold chamber and in the dark. The analyses of cell death produced by the peptide and of the stage of cell cycle of the cells were performed with the equipment BD Facs Verse (Becton Dickinson). The cell cycle modelling was performed with the software Modfit LT, version 3.3.11. The experiments were performed in duplicate.
In this example, the cytotoxic and antiproliferative activity of the peptide PaSK is assessed by flow cytometry, performing an analysis of cell viability and an analysis of the cell cycle. After treatment of the tumour cells MDA-MB-231 with 200 μg/mL (cell viability experiments) and 100 μg/mL (analysis of cell cycle) of PaSK the percentage of viable cells was determined, as well as the stage of the cell cycle in which proliferation was stopped.

Compound: CC[C@H](C)[C@H](NC(=O)[C@H](CCCNC(=N)N)NC(=O)[C@H](CCCNC(=N)N)NC(=O)[C@H](CCCCN)NC(=O)[C@H](CC(N)=O)NC(=O)[C@H](CS)NC(=O)[C@H](Cc1ccc(O)cc1)NC(=O)CNC(=O)CNC(=O)[C@H](CCCNC(=N)N)NC(=O)[C@H](CCCCN)NC(=O)[C@H](CCCNC(=N)N)NC(=O)[C@H](CCCCN)NC(=O)[C@H](CC(C)C)NC(=O)[C@H](CC(C)C)NC(=O)[C@H](CS)NC(=O)[C@H](Cc1c[nH]cn1)NC(=O)[C@H](C)NC(=O)[C@H](C)NC(=O)[C@H](CS)NC(=O)[C@H](C)NC(=O)[C@H](C)NC(=O)[C@H](Cc1c[nH]cn1)NC(=O)[C@H](CC(N)=O)NC(=O)[C@@H](NC(=O)[C@@H](N)CCCCN)C(C)C)C(=O)N[C@@H](CS)C(=O)N[C@H](C(=O)N[C@@H](CS)C(=O)N[C@@H](CCCNC(=N)N)C(=O)N[C@@H](CC(N)=O)C(=O)O)C(C)C [PaSK] (H-KVNHAACAAHCLLKRKRGGYCNKRRICVCRN-OH; N-terminus and C-terminus assumed)
- morphological and ultrastructural changes [1]: significant morphological changes
- ultrastructural damage, transmission electron microscopy [2]: detachments, malformations and thinning of the membrane
- cell proliferation (Oregon Green fluorescence intensity) [3]: inhibits proliferation
- percentage of cells in stage G1 [4]: 57.9%
- percentage of cells in stage G2 [4]: 9.0%
- percentage of cells in stage S [4]: 33.2%
